Laboratory results published in US20170152258A9, “Substituted Pyridopyrazines as Syk Inhibitors” (HUTCHISON MEDIPHARMA LIMITED, priority 2012, published 2017).

Each compound was assayed against Syk kinase (Homo sapiens, UniProt P43405) (assay: SYK Enzymatic Assay (Z-LYTE Tyr 2 peptide)). Details: 8 concentrations 1 μM down to 0.0003 μM.
Format: biochemical
Method: Syk kinase assay are performed in vitro using Kit-Tyr 2 Peptide (Invitrogen, Cat. No. PV3191) and in a 384-well assay plate. […] The 384-well assay plate (Corning, Cat. No. 3575) is mixed and incubated at room temperature for 1 hour. 10 μL of the Development Solution (prepared by diluting Development Reagent A (Cat. No. PV3297) to 1/32 with Development Buffer (Cat. No. PV3127)) is then added to each well, mixed and incubated at room temperature for another 1 hour. The reactions are then stopped by adding 10 μL of the Stop Reagent (Invitrogen, Cat. No. PV3094), and the plate is read with Wallac 1420 VICTOR^3 Multilabel Counter (PerkinElmer™) at 445 nm and 520 nm fluorescence. All compounds are tested at 8 concentrations (1 μM down to 0.0003 μM) using a 1:3 serial dilution scheme.

SMILES	IC50 [nM]
NC(=O)c1ccc(Oc2nc(-c3ccc(N4CCOCC4)cc3)cc3nccnc23)cc1 [Compound 3, 4-(7-(4-morpholinophenyl)pyrido[4,3-b]pyrazin-5-yloxy)benzamide]	459
O=C1CCC(COc2nc(-c3ccc(N4CCOCC4)cc3)cc3nccnc23)CN1 (stereo not shown) [Compound 4, 5-(((7-(4-morpholinophenyl)pyrido[3,4-b]pyrazin-5-yl)oxy)methyl)piperidin-2-one]	160
CC(=O)NC(C)(C)c1ccc(-c2cc3nccnc3c(OC[C@@H]3CN(S(C)(=O)=O)CCO3)n2)cc1 [Compound 313]	104
COc1ccc(-c2cc3nccnc3c(OC[C@@H]3CN(S(C)(=O)=O)CCO3)n2)cc1F [Compound 35]	131
CN(C)CCc1ccc(-c2cc3nccnc3c(OC[C@@H]3CN(S(C)(=O)=O)CCO3)n2)cc1 [Compound 272]	178
Cn1cc(-c2cc3nccnc3c(OC[C@@H]3CN(S(C)(=O)=O)CCO3)n2)cn1 [Compound 46]	192
COc1cc(-c2cc3nccnc3c(OC[C@@H]3CN(C(C)=O)CCO3)n2)ccc1OC(C)C [Compound 147]	115
CS(=O)(=O)N1CCO[C@H](COc2nc(-c3cnn(C4CCOCC4)c3)cc3nccnc23)C1 [Compound 42]	139
CS(=O)(=O)N1CCO[C@H](COc2nc(-c3ccc(F)cc3)cc3nccnc23)C1 [Compound 44]	324
CS(=O)(=O)N1CCC(c2ccc(-c3cc4nccnc4c(OCC4CCCO4)n3)cc2)CC1 (stereo not shown) [Compound 170]	182
CC(=O)N1CCOC(C(C)Oc2nc(-c3ccc(N(C)C)cc3)cc3nccnc23)C1 (stereo not shown) [Compound 233]	386
CC(C)S(=O)(=O)N1CCO[C@H](COc2nc(-c3ccc(N4CCOCC4)cc3)cc3nccnc23)C1 [Compound 82]	113
CN1CCN(c2ccc(-c3cc4nccnc4c(OCC4CCC(=O)NC4)n3)cc2)CC1 (stereo not shown) [Compound 5]	172
CNC(=O)N1CCOC(C(C)Oc2nc(-c3ccc(N(C)C)cc3)cc3nccnc23)C1 (stereo not shown) [Compound 239]	451
CN(C)c1ccc(-c2cc3nccnc3c(OCC3CCCCO3)n2)cc1 (stereo not shown) [Compound 167]	405
CC(C)c1ccc(-c2cc3nccnc3c(OC[C@@H]3CN(S(N)(=O)=O)CCO3)n2)cc1 [Compound 187]	109
CNC(=O)N1CCO[C@H](COc2nc(-c3ccc4[nH]ncc4c3)cc3nccnc23)C1 [Compound 204]	126
CS(=O)(=O)N1CCO[C@H](COc2nc(-c3ccc(C#N)cc3)cc3nccnc23)C1 [Compound 45]	846
CN(C)c1ccc(-c2cc3nccnc3c(OC[C@@H]3CN(C(=O)C4(C#N)CC4)CCO3)n2)cc1 [Compound 97]	144
CN(C)c1ccc(-c2cc3nccnc3c(OC[C@@H]3CN(C(=O)Cc4cccnc4)CCO3)n2)cc1 [Compound 80]	107
CC(C)(O)c1ccc(-c2cc3nccnc3c(OCC3OCCNC3=O)n2)cc1 (stereo not shown) [Compound 319]	208
CN1C[C@@H](COc2nc(-c3ccc(C(C)(C)O)cc3)cc3nccnc23)OCC1=O [Compound 310]	588
CC(=O)N1CC(c2ccc(-c3cc4nccnc4c(OC[C@@H]4CN(C(C)=O)CCO4)n3)cc2)C1 [Compound 295, (S)-1-(2-(((7-(4-(1-acetylazetidin-3-yl)phenyl)pyrido[3,4-b]pyrazin-5-yl)oxy)methyl)morpholino)ethanone]	128
c1cnc2c(O[C@@H]3CCNC3)nc(-c3ccc(N4CCOCC4)cc3)cc2n1 [Compound 243]	300
CN(C)c1ccc(-c2cc3nccnc3c(OC[C@@H]3CN(C(=O)CCCC#N)CCO3)n2)cc1 [Compound 81]	166

SMILES	IC50 [nM]
NC(=O)N1CCO[C@H](COc2nc(-c3ccc4[nH]ncc4c3)cc3nccnc23)C1 [Cmpd 242]	111
CNS(=O)(=O)CCN1CCO[C@H](COc2nc(-c3ccc(N(C)C)cc3)cc3nccnc23)C1 [Compound 128]	477
CS(=O)(=O)N1CCO[C@H](COc2nc(-c3ccc(OC(F)F)cc3)cc3nccnc23)C1 [Compound 34]	227
CN(C)c1ccc(-c2cc3nccnc3c(O[C@H]3CCOC3)n2)cc1 [Compound 106]	130
CC(=O)N1CCO[C@H](COc2nc(-c3ccc(C4(O)CCC4)cc3)cc3nccnc23)C1 [Compound 309]	127
CC(=O)N1CCO[C@H](COc2nc(-c3ccc(C(O)C(C)(C)C)cc3)cc3nccnc23)C1 (stereo partly shown) [Compound 285]	258
CC(=O)N1CCO[C@H](COc2nc(-c3ccc(C4CCNCC4)cc3)cc3nccnc23)C1 [Compound 162]	151
Cc1ccc(-c2cc3nccnc3c(OC[C@@H]3CN(S(C)(=O)=O)CCO3)n2)cc1 [Compound 41]	138
CC(=O)N1CCO[C@H](COc2nc(-c3cnc(N(C)C)c(C)c3)cc3nccnc23)C1 [Compound 174]	816
CC(C)C(O)c1ccc(-c2cc3nccnc3c(OC[C@@H]3CN(S(C)(=O)=O)CCO3)n2)cc1 (stereo partly shown) [Compound 287]	105
CC(Oc1nc(-c2ccc(N(C)C)cc2)cc2nccnc12)C1CN(S(C)(=O)=O)CCO1 (stereo not shown) [Compound 236]	109
CN(C)S(=O)(=O)N1CCO[C@H](COc2nc(-c3ccc(N4CCOCC4)cc3)cc3nccnc23)C1 [Compound 56]	121
CC(=O)N1CCO[C@H](COc2nc(-c3ccc(C(O)C(C)C)cc3)cc3nccnc23)C1 (stereo partly shown) [Compound 286]	403
CC(=O)N1CCO[C@H](COc2nc(-c3ccc(C(C)C)cc3)cc3nccnc23)C1 [Compound 160]	102
N#CC1(c2ccc(-c3cc4nccnc4c(OC[C@@H]4CN(C(N)=O)CCO4)n3)cc2)CC1 [Compound 275]	76
CC(=O)N1CCO[C@H](COc2nc(-c3ccc(C(C)(CO)CO)cc3)cc3nccnc23)C1 [Compound 278]	175
CNC(=O)N1CCOC(C(C)Oc2nc(-c3ccc(N(C)C)cc3)cc3nccnc23)C1 (stereo not shown) [Compound 235]	212
CC(=O)N1CCO[C@H](COc2nc(-c3ccc(N4CCNCC4)c(C)c3)cc3nccnc23)C1 [Compound 182]	110
COc1ccc(-c2cc3nccnc3c(OC[C@@H]3CN(C(C)=O)CCO3)n2)cc1OC [Compound 132]	109
OC1CCC(Oc2nc(-c3ccc(N4CCOCC4)cc3)cc3nccnc23)CC1 (stereo not shown) [Compound 1, 4-(7-(4-morpholinophenyl)pyrido[4,3-b]pyrazin-5-yloxy)cyclohexanol]	270
CS(=O)(=O)N1CCO[C@H](COc2nc(-c3ccc(Cl)cc3)cc3nccnc23)C1 [Compound 40]	338
CC(Oc1nc(-c2ccc(N(C)C)cc2)cc2nccnc12)C1CN(C(N)=O)CCO1 (stereo not shown) [Compound 238]	275
CN(C)c1ccc(-c2cc3nccnc3c(OC[C@@H]3CN(C(=O)CCc4cccnc4)CCO3)n2)cc1 [Compound 79]	231
CC(Oc1nc(-c2ccc(N(C)C)cc2)cc2nccnc12)C1CN(C(N)=O)CCO1 (stereo not shown) [Compound 234]	193
